Assay results: the supplement of paper PMC10307832

Columns and labels:
Test in all cases: relative viability (nuclei count vs DMSO), 5 days (fraction); higher = more cells survive
RU-SKI 43 + Tozasertib = compound: CC[C@@H](C)CNCC(=O)N1CCC2=C([C@@H]1COC3=CC=CC(=C3)C)C=CS2 [RU-SKI 43] + Cc1cc(Nc2cc(N3CCN(C)CC3)nc(Sc3ccc(NC(=O)C4CC4)cc3)n2)n[nH]1 [Tozasertib] (partner 0.1 µM)
In short: (§1)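 Dosing by pin tool came one day after lung cancer cell lines were seeded in 1536-well plates, using either one drug or a fixed anchor-drug dose plus five library-drug doses (not always all listed) in √10 steps. After 5 days, nuclei were counted on 4× images. Relative viability is treated-well nuclei count divided by vehicle-well nuclei count, and values are medians of duplicate plates.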

MK-8033 + Pictilisib = compound: Cn1cc(-c2cnc3ccc4ccc(CS(=O)(=O)NCc5ccccn5)cc4c(=O)c3c2)cn1 [MK-8033] + CS(=O)(=O)N1CCN(Cc2cc3nc(-c4cccc5[nH]ncc45)nc(N4CCOCC4)c3s2)CC1 [Pictilisib] (partner 1 µM)
In short: as §1

MK-8033 + Vorinostat = compound: Cn1cc(-c2cnc3ccc4ccc(CS(=O)(=O)NCc5ccccn5)cc4c(=O)c3c2)cn1 [MK-8033] + O=C(CCCCCCC(=O)Nc1ccccc1)NO [Vorinostat] (partner 1 µM)
In short: as §1

Irinotecan + OSI-027 = compound: CCc1c2c(nc3ccc(OC(=O)N4CCC(N5CCCCC5)CC4)cc13)-c1cc3c(c(=O)n1C2)COC(=O)[C@]3(O)CC [Irinotecan] + COc1cccc2cc(-c3nc([C@H]4CC[C@H](C(=O)O)CC4)n4ncnc(N)c34)[nH]c12 [OSI-027] (partner 0.5 µM)
In short: as §1

Cell Line	relative viability (RU-SKI 43 + Tozasertib; first compound 0.1 µM)	relative viability (RU-SKI 43 + Tozasertib; first compound 0.3162 µM)	relative viability (RU-SKI 43 + Tozasertib; first compound 1 µM)	relative viability (RU-SKI 43 + Tozasertib; first compound 3.162 µM)	relative viability (RU-SKI 43 + Tozasertib; first compound 10 µM)	relative viability (MK-8033 + Pictilisib; first compound 0.02 µM)	relative viability (MK-8033 + Pictilisib; first compound 0.06325 µM)	relative viability (MK-8033 + Pictilisib; first compound 0.2 µM)	relative viability (MK-8033 + Pictilisib; first compound 0.6325 µM)	relative viability (MK-8033 + Pictilisib; first compound 2 µM)	relative viability (MK-8033 + Vorinostat; first compound 0.02 µM)	relative viability (MK-8033 + Vorinostat; first compound 0.06325 µM)	relative viability (MK-8033 + Vorinostat; first compound 0.2 µM)	relative viability (MK-8033 + Vorinostat; first compound 0.6325 µM)	relative viability (MK-8033 + Vorinostat; first compound 2 µM)	relative viability (Irinotecan + OSI-027; first compound 0.6325 µM)	relative viability (Irinotecan + OSI-027; first compound 2 µM)	relative viability (Irinotecan + OSI-027; first compound 6.325 µM)	relative viability (Irinotecan + OSI-027; first compound 20 µM)
201T	0.883	1.03	0.883	0.931	0.812	0.684	0.579	0.657	0.654	0.697	0.956	0.926	0.791	0.949	0.962	0.723	0.643	0.344	0.153
A549						0.519	0.491	0.387	0.47	0.409									
A-427	0.226	0.165	0.23	0.21	0.196	0.676	0.7	0.677	0.734	0.644	0.886	0.826	0.819	0.908	0.881		0.315	0.244	0.227
ABC-1	0.16	0.172	0.18	0.166	0.185	0.969	0.564	0.689	0.674	0.699	1.24	0.931	0.928	1.04	0.975		0.494	0.341	0.093
BEN	0.502	0.426	0.546	0.495	0.509	0.583	0.454	0.499	0.594	0.541	0.594	0.537	0.602	0.547	0.67	0.296	0.271	0.31	0.255
CAL-12T	0.296	0.403	0.303	0.26	0.243	0.515	0.323	0.339	0.436	0.388	0.797	0.709	0.81	0.775	0.673		0.798	0.357	0.101
COR-L23	0.18	0.179	0.188	0.164	0.176	0.8	0.731	0.697	0.876	0.823	0.423	0.408	0.385	0.459	0.491	0.578	0.556	0.179	0.145
COR-L 105	0.317	0.252	0.32	0.339	0.332	0.413	0.357	0.366	0.424	0.403	0.88	0.891	0.708	0.782	0.547	0.773	0.859	0.565	0.166
Calu-6						0.947	0.766	0.899	0.85	0.975									
ChaGo-K-1	0.234	0.203	0.221	0.22	0.231	0.717	0.652	0.654	0.713	0.615	0.769	0.74	0.729	0.685	0.687	0.272	0.39	0.215	0.212
EBC-1						0.354	0.314	0.222	0.195	0.144									
EKVX	0.354	0.379	0.374	0.372	0.31	0.433	0.409	0.442	0.438	0.476	0.484	0.72	0.734	0.746	0.66	0.664	0.625	0.49	0.162
EMC-BAC-2	0.295	0.235	0.262	0.296	0.249	0.59	0.412	0.478	0.502	0.483	0.619	0.346	0.421	0.454	0.476	0.316	0.331	0.274	0.287
EPLC-272H	0.213	0.226	0.445	0.242	0.207	0.3		0.298	0.303	0.294	0.434	0.332	0.38	0.422	0.551	0.224	0.268	0.165	0.249
H3255	0.721	0.726	0.292	0.76	0.489	0.558	0.299	0.48	0.577	0.441	0.847		0.768	0.81	0.742	0.502	0.445	0.373	0.367
HARA	0.125	0.0842	0.118	0.111	0.108	0.445	0.395	0.335	0.382	0.419	0.549		0.553	0.521	0.542	0.148	0.186	0.142	0.0795
HCC-15	0.43	0.327	0.27	0.252	0.219	0.829	0.632	0.698	0.767	0.754	0.898	0.767	0.752	0.738	0.798		0.441	0.198	0.14
HCC-44	0.962		0.903	1.02	0.87	0.623	0.409	0.542	0.69	0.738	1.06	1.14	1.09	1.2	1.07		0.721	0.289	0.213

Cell Line	relative viability (RU-SKI 43 + Tozasertib; first compound 0.1 µM)	relative viability (RU-SKI 43 + Tozasertib; first compound 0.3162 µM)	relative viability (RU-SKI 43 + Tozasertib; first compound 1 µM)	relative viability (RU-SKI 43 + Tozasertib; first compound 3.162 µM)	relative viability (RU-SKI 43 + Tozasertib; first compound 10 µM)	relative viability (MK-8033 + Pictilisib; first compound 0.02 µM)	relative viability (MK-8033 + Pictilisib; first compound 0.06325 µM)	relative viability (MK-8033 + Pictilisib; first compound 0.2 µM)	relative viability (MK-8033 + Pictilisib; first compound 0.6325 µM)	relative viability (MK-8033 + Pictilisib; first compound 2 µM)	relative viability (MK-8033 + Vorinostat; first compound 0.02 µM)	relative viability (MK-8033 + Vorinostat; first compound 0.06325 µM)	relative viability (MK-8033 + Vorinostat; first compound 0.2 µM)	relative viability (MK-8033 + Vorinostat; first compound 0.6325 µM)	relative viability (MK-8033 + Vorinostat; first compound 2 µM)	relative viability (Irinotecan + OSI-027; first compound 0.6325 µM)	relative viability (Irinotecan + OSI-027; first compound 2 µM)	relative viability (Irinotecan + OSI-027; first compound 6.325 µM)	relative viability (Irinotecan + OSI-027; first compound 20 µM)
HCC-78	0.395	0.569	0.432	0.406	0.318	0.237	0.152	0.253		0.245	0.401	0.399	0.539	0.262	0.455	0.37	0.35	0.229	0.235
HCC-366	0.098	0.0997	0.124	0.132	0.0872	0.151	0.0933	0.228	0.138	0.142	0.392	0.313	0.253	0.329	0.324	0.144	0.714	0.0844	0.0682
HCC-827	0.435	0.523	0.592	0.426	0.368	1.05	0.605	0.902	1.06	1.04	1.1		0.8	0.907	0.959	0.639	0.64	0.224	0.216
HOP-62	0.359	0.371	0.479	0.344	0.287	0.626	0.593	0.587	0.694	0.646	0.549	0.617	0.61	0.717	0.588	0.48	0.768	0.224	0.22
IA-LM						0.356	0.273	0.293	0.286	0.289	0.828	0.976	0.938	1.01	0.965				
LC-2-ad	0.424	0.442	0.459	0.424	0.405	0.43	0.461	0.453	0.572	0.486	0.786	0.651	0.618	0.75	0.659	0.384	0.606	0.372	0.148
LCLC-97TM1	0.26	0.22	0.207	0.21	0.231	0.187	0.148	0.199	0.215	0.19	0.662	0.48		0.825	0.761	0.224	0.207	0.108	0.133
LCLC-103H	0.411	0.445	0.498	0.501	0.373	0.616	0.589	0.593	0.737	0.638	0.767	0.719	0.753	0.704	0.807	0.483	0.496	0.339	0.347
NCI-H522	0.566	0.544	0.581	0.537	0.524						0.796	0.741	0.829	0.895	0.942	1.07	0.643	0.645	0.569
NCI-H1299						0.759	0.862	0.748	0.799	0.617									
NCI-H1563						0.617	0.63	0.648	0.659	0.705						0.704	0.843	0.865	0.589
NCI-H1623	0.447	0.42	0.71	0.386	0.399											0.415	0.415	0.303	0.294
NCI-H1648			0.428	0.484	0.4						0.591		0.3	0.718	0.629	0.238	0.242	0.255	0.268
NCI-H1703						0.238	0.244	0.255	0.223	0.248									
NCI-H1792						0.256	0.188	0.346	0.269	0.212						0.7	0.617	0.456	0.231
NCI-H2342	0.489	0.528	0.502	0.441	0.516						0.859	0.728	0.643	0.79	0.731	0.58	0.551	0.607	0.439
SW 900	0.671	0.553	0.54	0.45	0.512						0.593	0.394	0.377	0.541	0.348	0.298	0.632	0.4	0.424
